Results taken from patent US20250111889A1, “DE NOVO DESIGNED MACROCYCLIC OLIGOAMIDES” (UNIVERSITY OF WASHINGTON, priority 2022, published 2025).
Where a SMILES comes first, the peptide text is derived from it. Bridges are numbered along the chain shown (N, C = ends). [ ]: non-standard residue; d: D form. Trp(6-Cl) = N[C@@H](Cc1c[nH]c2cc(Cl)ccc12)C(=O)O; NMePhe(2,4-Me2) = CN[C@@H](Cc1ccc(C)cc1C)C(=O)O; dNMePhe(2,4-Me2) = CN[C@H](Cc1ccc(C)cc1C)C(=O)O; NMePhe(2-Me) = CN[C@@H](Cc1ccccc1C)C(=O)O; NMeNva = CCC[C@H](NC)C(=O)O

Columns and labels:
MCL-1 = molecular target: T1, MCL-1 (Homo sapiens, UniProt Q07820); experiment: MCL-1 assay (HTRF, Anti-GST-Tb); type: binding; conditions: 10-dose singlet, 3-fold serial dilution starting at 200 uM; HTRF signal after 60 min
T1 construct: GST
Procedure: MCL-1: The compounds were tested in 10-dose IC50 singlet with a 3-fold serial dilution starting at 200 uM. Compounds in DMSO were added to enzyme solution by using Acoustic Technology. Compounds were incubated with enzyme for 10 min. at room temperature. Respective compounds were then added, and the mixture incubated for another 10 min. Finally, Anti-GST-Tb was added. After 60 min incubation, the HTRF signal was measured.

SARS-CoV-2 main protease = molecular target: T2, SARS-CoV-2 main protease (Severe acute respiratory syndrome coronavirus 2, UniProt P0DTD1); experiment: SARS-CoV-2 main protease assay (fluorescence time-course); type: biochemical; conditions: 10-dose singlet, 3-fold serial dilution starting at 200 uM; increase in fluorescence signal
T2 construct: SARS-CoV-2 main protease
Procedure: SARS-CoV-2 main protease: The compounds were tested in 10-dose IC50 singlet with a 3-fold serial dilution starting at 200 uM. The protease activities were monitored as a time-course measurement of the increase in fluorescence signal.

MDM2 = molecular target: T3, MDM2 (Homo sapiens, UniProt Q00987); experiment: MDM2 assay (commercial alphalisa kit, PerkinElmer AL3168C); type: binding; conditions: alphalisa kit per manufacturer's instructions; quantity not given
T3 construct: purchased PerkinElmer AL3168C
Procedure: MDM2: The assay was performed using a commercially available alphalisa assay kit from PerkinElmer (part number AL3168C) following the manufacturer's instructions.

in vitro = in vitro ADME; conditions: PAMPA
Description: We measured the passive membrane diffusion of all 29 macrocycles designed with the two approaches using the parallel artificial membrane permeability assay (PAMPA) (FIGS. 3, 4, and 16). Almost all of the macrocycles were quite membrane permeable: 16 of the 29 had log(Papp)'s greater than −6, and only three were not detected in the acceptor well. Under the same conditions, the small molecule drug propranolol achieved log(Papp) of −5.36 (FIG. 16). As expected, designs with exposed polar groups, particularly side chain hydroxyls and primary amides, had lower permeabilities. Overall, the hydrogen-bond containing designs were more permeable than the torsionally-optimized based designs, likely due to fewer exposed backbone polar groups.
PAMPA: Stock solutions of each peptide were prepared gravimetrically by dissolving ca. 1-3 mg of peptide in either 100% MeOH or 100% DMSO to produce ca. 1-10 mM peptide solutions. These stock solutions were stored at 4° C. when not in use. Samples for PAMPA experiments and calibration curves were prepared by diluting these stock solutions to produce 1.2 mL of 20 uM peptide in PBS supplemented with either 5% DMSO, or 10% MeOH. […] The concentration of each peptide in the donor and acceptor wells was quantified by LCMS after approximately 19 hours. […]

T1 sequence (Q07820 whole entry, species assumed): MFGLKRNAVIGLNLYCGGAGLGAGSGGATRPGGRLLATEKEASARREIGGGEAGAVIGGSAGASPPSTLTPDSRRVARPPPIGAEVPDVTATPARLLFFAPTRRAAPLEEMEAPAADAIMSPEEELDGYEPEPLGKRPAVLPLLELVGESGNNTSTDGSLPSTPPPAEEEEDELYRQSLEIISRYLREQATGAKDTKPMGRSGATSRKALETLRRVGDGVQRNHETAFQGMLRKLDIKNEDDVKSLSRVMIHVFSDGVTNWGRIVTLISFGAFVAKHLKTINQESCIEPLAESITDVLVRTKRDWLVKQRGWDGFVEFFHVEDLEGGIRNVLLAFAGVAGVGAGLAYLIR
T3 sequence (Q00987 whole entry): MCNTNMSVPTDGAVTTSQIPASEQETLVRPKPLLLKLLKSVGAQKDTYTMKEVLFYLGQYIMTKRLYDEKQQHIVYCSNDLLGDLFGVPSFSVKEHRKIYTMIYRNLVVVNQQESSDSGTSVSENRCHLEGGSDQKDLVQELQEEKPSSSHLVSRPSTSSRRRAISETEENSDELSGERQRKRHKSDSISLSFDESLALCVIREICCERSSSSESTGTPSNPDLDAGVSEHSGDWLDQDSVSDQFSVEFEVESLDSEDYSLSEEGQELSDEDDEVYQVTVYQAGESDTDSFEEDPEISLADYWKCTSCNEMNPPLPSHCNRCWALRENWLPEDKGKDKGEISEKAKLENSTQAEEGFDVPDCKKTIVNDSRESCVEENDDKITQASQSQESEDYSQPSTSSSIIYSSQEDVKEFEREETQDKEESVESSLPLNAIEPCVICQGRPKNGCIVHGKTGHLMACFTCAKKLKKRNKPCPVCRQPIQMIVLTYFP

## COc1cccc(CCN2CC(=O)N[C@@H](C(C)C)CC(=O)NCc3cccc(c3)CC(=O)N[C@@H](Cc3ccc(Cl)c(Cl)c3)C2=O)c1 [Compound 29]
MCL-1
  IC50: 22800 nM

## Cc1ccccc1CN1CC(=O)N[C@H](C(C)(C)C)C(=O)NCc2cccc(c2)CC(=O)N[C@H](Cc2ccc(Cl)c(Cl)c2)CC1=O [Compound 11]
MCL-1
  IC50: 4580 nM

## O=C1C[C@H](Cc2ccc(F)cc2)NC(=O)[C@H](Cc2cccnc2)NC(=O)[C@H](Cc2cccc(Cl)c2)NC(=O)Cc2ccccc2N1 [Compound 141]
SARS-CoV-2 main protease
  IC50: 1840 nM

## Cc1ccccc1C[C@@H]1NC(=O)Cc2ccccc2NC(=O)C[C@H](Cc2c(F)c(F)c(F)c(F)c2F)NC(=O)[C@H](Cc2cccnc2)NC1=O [Compound 139]
SARS-CoV-2 main protease
  IC50: 2370 nM

## CCC[C@H]1C(=O)N[C@@H](Cc2c[nH]c3cc(Cl)ccc23)C(=O)N(C)[C@@H](Cc2ccc(C)cc2C)C(=O)N[C@H](C(N)=O)CSCC(=O)N1C [Compound 32] ({CH2CO}-[NMeNva][Trp(6-Cl)][NMePhe(2,4-Me2)]C-NH2; thioether N-4)
MDM2
  IC50: 100000 nM

## CN1C(=O)CN(Cc2cccc(Br)c2)C(=O)CCCCNC(=O)[C@@H](Cc2ccc(C(C)(C)C)cc2)NC(=O)[C@@H]1Cc1ccc(Cl)c(Cl)c1 [Compound 121]
MCL-1
  IC50: 50100 nM

## O=C1C[C@H](Cc2ccc(Br)cc2)NC(=O)[C@H](Cc2cccnc2)NC(=O)[C@H](Cc2cccc(C(F)(F)F)c2)NC(=O)Cc2ccccc2N1 [Compound 137]
SARS-CoV-2 main protease
  IC50: 1270 nM

## COc1cccc(CCN2CC(=O)N[C@H]3CC[C@H](CC3)CC(=O)N(CCc3ccc(C(F)(F)F)cc3)CC(=O)N(Cc3ccc(Cl)c(Cl)c3)CC2=O)c1 [Compound 18]
MCL-1
  IC50: 28200 nM

## O=C1C[C@H](Cc2ccccc2Cl)NC(=O)[C@H](Cc2cccnc2)NC(=O)[C@H](Cc2cccc(C(F)(F)F)c2)NC(=O)Cc2ccccc2N1 [Compound 144]
SARS-CoV-2 main protease
  IC50: 1260 nM

## Cc1ccccc1C[C@@H]1NC(=O)Cc2ccccc2NC(=O)C[C@H](Cc2ccccc2)NC(=O)[C@H](Cc2cccnc2)NC1=O [Compound 218]
SARS-CoV-2 main protease
  IC50: 17800 nM

## O=C1C[C@H](Cc2cccc(Cl)c2)NC(=O)[C@H](Cc2cccnc2)NC(=O)[C@H](Cc2cccc(Cl)c2)NC(=O)Cc2ccccc2N1 [Compound 143]
SARS-CoV-2 main protease
  IC50: 2650 nM

## Cc1ccccc1C[C@@H]1NC(=O)Cc2ccccc2NC(=O)C[C@H](Cc2ccccc2Cl)NC(=O)[C@H](Cc2cccnc2)NC1=O [Compound 133]
SARS-CoV-2 main protease
  IC50: 844 nM

## Cc1cccc(C[C@H]2CC(=O)Nc3ccccc3CC(=O)N[C@@H](Cc3cccc(C(F)(F)F)c3)C(=O)N[C@@H](Cc3cccnc3)C(=O)N2)c1 [Compound 138]
SARS-CoV-2 main protease
  IC50: 2140 nM

## Cc1ccc(C[C@@H]2NC(=O)CCCCNC(=O)CN(CCOc3c(C)cccc3C)C(=O)[C@@H](Cc3ccc(Cl)c(Cl)c3)N(C)C2=O)cc1 [Compound 119]
MCL-1
  IC50: 18900 nM

## O=C1C[C@H](Cc2ccc(Br)cc2)NC(=O)[C@H](Cc2cccnc2)NC(=O)[C@H](Cc2cccc(Cl)c2)NC(=O)Cc2ccccc2N1 [Compound 134]
SARS-CoV-2 main protease
  IC50: 1220 nM

## COc1cc(CN2CC(=O)NCc3ccccc3C(=O)N[C@@H](Cc3ccc(Cl)c(Cl)c3)C(=O)N(CCc3ccc(F)cc3)CC2=O)cc(OC)c1 [Compound 16]
MCL-1
  IC50: 13500 nM

## CCC(CC)[C@H]1NC(=O)CN(Cc2ccc(Cl)c(Cl)c2)C(=O)[C@H](Cc2ccc(C(C)(C)C)cc2)NC(=O)CCCCNC1=O [Compound 122]
MCL-1
  IC50: 12300 nM

## CC(C)NCC(O)COc1cccc2ccccc12 (centres unmarked) [propranolol]
In vitro
  Papp at 20 uM: 4.37 ×10⁻⁶ cm/s

## O=C1C[C@H](Cc2ccccc2Cl)NC(=O)[C@H](Cc2cccnc2)NC(=O)[C@H](Cc2cccc(Cl)c2)NC(=O)Cc2ccccc2N1 [Compound 132]
SARS-CoV-2 main protease
  IC50: 1250 nM

## Cc1cccc(C[C@H]2CC(=O)Nc3ccccc3CC(=O)N[C@@H](Cc3ccccc3C)C(=O)N[C@@H](Cc3cccnc3)C(=O)N2)c1 [Compound 135]
SARS-CoV-2 main protease
  IC50: 1470 nM

## O=C1C[C@H](Cc2c(F)c(F)c(F)c(F)c2F)NC(=O)[C@H](Cc2cccnc2)NC(=O)[C@H](Cc2cccc(C(F)(F)F)c2)NC(=O)Cc2ccccc2N1 [Compound 131]
SARS-CoV-2 main protease
  IC50: 4070 nM

## CCOCCN1CC(=O)NCc2ccccc2C(=O)N[C@@H](Cc2ccc(Cl)c(Cl)c2)C(=O)N(CCc2ccc(F)cc2)CC1=O [Compound 19]
MCL-1
  IC50: 40600 nM

## O=C1C[C@H](Cc2ccc(Cl)c(Cl)c2)NC(=O)[C@H](Cc2cccnc2)NC(=O)[C@H](Cc2cccc(C(F)(F)F)c2)NC(=O)Cc2ccccc2N1 [Compound 136]
SARS-CoV-2 main protease
  IC50: 1470 nM

## Cc1ccc(C[C@@H]2C(=O)N[C@@H](Cc3c[nH]c4cc(Cl)ccc34)C(=O)N(C)[C@@H](Cc3ccccc3C)C(=O)N[C@H](C(N)=O)CSCC(=O)N2C)c(C)c1 [Compound 35] ({CH2CO}-[dNMePhe(2,4-Me2)][Trp(6-Cl)][NMePhe(2-Me)]C-NH2; thioether N-4)
MDM2
  IC50: 20000 nM

## Cc1ccccc1C[C@@H]1NC(=O)Cc2ccccc2NC(=O)C[C@H](Cc2ccc(Cl)c(Cl)c2)NC(=O)[C@H](Cc2cccnc2)NC1=O [Compound 142]
SARS-CoV-2 main protease
  IC50: 1890 nM

## Cc1ccccc1C[C@@H]1NC(=O)Cc2ccccc2NC(=O)C[C@H](Cc2cc(F)c(F)cc2F)NC(=O)[C@H](Cc2cccnc2)NC1=O [Compound 140]
SARS-CoV-2 main protease
  IC50: 1530 nM
